Experimental data reported in patent publication US11345708B2, “Substituted imidazo[1,2-a]imidazoles as modulators of metabotropic glutamate receptor 4 activity” (Hoffmann-La Roche Inc., priority 2017, dated 2022).

Target: T1, human mGlu4 receptor (Homo sapiens, UniProt Q14833)
T1 construct: expressed in transfected cells; host or cells: HEK-293 (monoclonal, stably transfected)
Assay: Ca2+ mobilization in vitro assay on recombinant human mGlu4 expressed in HEK293 cells
Type: cell-based
Conditions: HEK-293 cells stably expressing human mGlu4; L-AP4 added at EC20; Fluo-4 fluorescence; read-out: EC50 (uM) mGlu4 PAM
Description: Determination of EC50 Values Using a Ca2+ Mobilization In Vitro Assay on Recombinant Human mGlu4 Expressed in HEK293 Cells:
A monoclonal HEK-293 cell line stably transfected with a cDNA encoding for the human mGlu4 receptor was generated; for the work with mGlu4 Positive Allosteric Modulators (PAMs), a cell line with low receptor expression levels and low constitutive receptor activity was selected to allow the differentiation of agonistic versus PAM activity. Cells were cultured according to standard protocols (Freshney, 2000) in Dulbecco's Modified Eagle Medium with high glucose supplemented with 1 mM glutamine, 10% (vol/vol) heat-inactivated bovine calf serum, Penicillin/Streptomycin, 50 μg/ml hygromycin and 15 μg/ml blasticidin (all cell culture reagents and antibiotics from Invitrogen, Basel, Switzerland).
About 24 hrs before an experiment, 5×10^4 cells/well were seeded in poly-D-lysine coated, black/clear-bottomed 96-well plates. The cells were loaded with 2.5 μM Fluo-4 AM in loading buffer (1×HBSS, 20 mM HEPES) for 1 hr at 37° C. and washed five times with loading buffer. The cells were transferred into a Functional Drug Screening System 7000 (Hamamatsu, Paris, France), and 11 half logarithmic serial dilutions of test compound at 37° C. were added and the cells were incubated for 10-30 min. with on-line recording of fluorescence. Following this pre-incubation step, the agonist (2S)-2-amino-4-phosphonobutanoic acid (L-AP4) was added to the cells at a concentration corresponding to EC20 with on-line recording of fluorescence; in order to account for day-to-day variations in the responsiveness of cells, the EC20 of L-AP4 was determined immediately ahead of each experiment by recording of a full dose-response curve of L-AP4.
Responses were measured as peak increase in fluorescence minus basal (i.e. fluorescence without addition of L-AP4), normalized to the maximal stimulatory effect obtained with saturating concentrations of L-AP4. Graphs were plotted with the % maximal stimulatory using XLfit, a curve fitting program that iteratively plots the data using Levenburg Marquardt algorithm. The single site competition analysis equation used was y=A+((B−A)/(1+((x/C)D))), where y is the % maximal stimulatory effect, A is the minimum y, B is the maximum y, C is the EC50, x is the log 10 of the concentration of the competing compound and D is the slope of the curve (the Hill Coefficient). From these curves the EC50 (drug concentration at which 50% of the maximal receptor activation was achieved), the Hill coefficient as well as the maximal response in % of the maximal stimulatory effect obtained with saturating concentrations of L-AP4 were calculated (see Fig. 1).
A depression of the signal observed after addition of the EC20 concentration of L-AP4 was indicative of an inhibitory activity of the test compound.

T1 sequence (Q14833 33-912): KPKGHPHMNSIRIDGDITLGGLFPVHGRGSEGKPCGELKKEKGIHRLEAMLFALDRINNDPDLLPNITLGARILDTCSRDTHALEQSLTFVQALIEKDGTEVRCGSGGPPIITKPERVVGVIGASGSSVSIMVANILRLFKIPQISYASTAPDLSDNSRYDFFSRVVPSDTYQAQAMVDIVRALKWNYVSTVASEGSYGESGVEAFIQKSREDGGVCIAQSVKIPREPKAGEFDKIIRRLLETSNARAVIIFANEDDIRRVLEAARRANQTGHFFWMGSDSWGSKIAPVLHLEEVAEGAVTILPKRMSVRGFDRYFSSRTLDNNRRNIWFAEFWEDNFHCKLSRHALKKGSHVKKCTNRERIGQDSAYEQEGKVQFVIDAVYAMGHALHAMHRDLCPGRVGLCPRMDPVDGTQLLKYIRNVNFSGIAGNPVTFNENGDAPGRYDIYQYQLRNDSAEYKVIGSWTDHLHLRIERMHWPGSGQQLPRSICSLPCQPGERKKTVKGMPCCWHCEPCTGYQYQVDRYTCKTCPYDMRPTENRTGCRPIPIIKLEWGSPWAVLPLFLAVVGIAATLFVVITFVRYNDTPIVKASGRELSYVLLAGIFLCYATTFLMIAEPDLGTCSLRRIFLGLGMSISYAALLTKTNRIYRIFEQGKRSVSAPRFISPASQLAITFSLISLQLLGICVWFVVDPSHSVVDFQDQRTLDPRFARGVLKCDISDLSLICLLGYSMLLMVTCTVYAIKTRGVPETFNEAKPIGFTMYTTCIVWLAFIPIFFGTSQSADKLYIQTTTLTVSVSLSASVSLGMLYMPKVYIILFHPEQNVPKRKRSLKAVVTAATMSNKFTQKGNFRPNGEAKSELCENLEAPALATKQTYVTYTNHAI

Row | Structure (SMILES) | EC50 [µM]
1 | O=C1N(c2c(F)cc(C#Cc3cccnc3)cc2F)c2ncc(-c3cccnc3)n2C12CC2 [Example 39, 1′-(2,6-difluoro-4-(pyridin-3-ylethynyl)phenyl)-5′-(pyridin-3-yl)spiro[cyclopropane-1,3′-imidazo[1,2-a]imidazol]-2′(1′H)-one] | 0.566
2 | O=C1N(c2c(F)cc(C#Cc3ccccc3)cc2F)c2ncc(-c3cccnc3)n2C12CC2 [Example 33, 3-[2,6-Difluoro-4-(2-phenylethynyl)phenyl]-6-(pyridin-3-yl)-2,3-dihydrospiro[[1,3]diazolo[1,2-a]imidazole-1,1′-cyclopropane]-2-one] | 0.178
3 | Cn1cc(-c2cnc3n2C2(CC2)C(=O)N3c2c(F)cc(C#Cc3ccccc3)cc2F)cn1 [Example 29, 3-[2,6-Difluoro-4-(2-phenylethynyl)phenyl]-6-(1-methyl-1H-pyrazol-4-yl)-2,3-dihydrospiro[[1,3]diazolo[1,2-a]imidazole-1,1′-cyclopropane]-2-one] | 0.139
4 | O=C1N(c2c(F)cc(C#Cc3ccccc3)cc2F)c2ncc(-c3ccncc3)n2C12CC2 [Example 32, 3-[2,6-Difluoro-4-(2-phenylethynyl)phenyl]-6-(pyridin-4-yl)-2,3-dihydrospiro[[1,3]diazolo[1,2-a]imidazole-1,1′-cyclopropane]-2-one] | 0.156
5 | CC(C)(C)c1cnn(-c2cc(F)c(N3C(=O)C4(CC4)n4c(-c5ccccn5)cnc43)c(F)c2)c1 [Example 19, 7′-[4-(4-tert-butylpyrazol-1-yl)-2,6-difluoro-phenyl]-3′-(2-pyridyl)spiro[cyclopropane-1,5′-imidazo[1,2-a]imidazole]-6′-one] | 0.426
6 | CS(=O)(=O)c1cnc2n1C1(CC1)C(=O)N2c1c(F)cc(C#Cc2ccccc2)cc1F [Example 53, 3′-[2,6-Difluoro-4-(2-phenylethynyl)phenyl]-6′-methanesulfonyl-2′,3′-dihydrospiro[cyclopropane-1,1′-imidazo[1,2-a][1,3]diazole]-2′-one] | 0.69
7 | Cn1ccc(-c2cnc3n2C2(CC2)C(=O)N3c2c(F)cc(-c3ccc(OC(F)F)cc3)cc2F)n1 [Example 45, 7′-[4-[4-(difluoromethoxy)phenyl]-2,6-difluoro-phenyl]-3′-(1-methylpyrazol-3-yl)spiro[cyclopropane-1,5′-imidazo[1,2-a]imidazole]-6′-one] | 0.621
8 | CC1(C)C(=O)N(c2c(F)cc(C#Cc3ccccc3)cc2F)c2nccn21 [Example 5, 1-(2,6-difluoro-4-(phenylethynyl)phenyl)-3,3-dimethyl-1H-imidazo[1,2-a]imidazol-2(3H)-one] | 0.468
9 | Cn1ccc(-c2cnc3n2C2(CC2)C(=O)N3c2c(F)cc(C#Cc3ccccc3)cc2F)n1 [Example 26, 1′-(2,6-difluoro-4-(phenylethynyl)phenyl)-5′-(1-methyl-1H-pyrazol-3-yl)spiro[cyclopropane-1,3′-imidazo[1,2-a]imidazol]-2′(1′H)-one] | 0.104
10 | CC1(C)C(=O)N(c2c(F)cc(C#Cc3ccccc3)cc2Cl)c2nccn21 [Example 2, 1-(2-chloro-6-fluoro-4-(phenylethynyl)phenyl)-3,3-dimethyl-1H-imidazo[1,2-a]imidazol-2(3H)-one] | 0.359
11 | O=C(Nc1cc(F)c(N2C(=O)C3(CC3)n3c(CO)cnc32)c(F)c1)c1ccccn1 [Example 56, N-[3,5-difluoro-4-[3′-(hydroxymethyl)-6′-oxo-spiro[cyclopropane-1,5′-imidazo[1,2-a]imidazole]-7′-yl]phenyl]pyridine-2-carboxamide] | 0.834
12 | Cn1ccc(-c2cnc3n2C(C)(C)C(=O)N3c2c(F)cc(C#Cc3ccccc3)cc2Cl)n1 [Example 36, 1-(2-chloro-6-fluoro-4-(phenylethynyl)phenyl)-3,3-dimethyl-5-(1-methyl-1H-pyrazol-3-yl)-1H-imidazo[1,2-a]imidazol-2(3H)-one] | 0.252
13 | O=C1N(c2c(F)cc(C#Cc3ccccc3)cc2F)c2ncc(-c3cc[nH]n3)n2C12CC2 [Example 27, 3-[2,6-Difluoro-4-(2-phenylethynyl)phenyl]-6-(1H-pyrazol-3-yl)-2,3-dihydrospiro[[1,3]diazolo[1,2-a]-imidazole-1,1′-cyclopropane]-2-one] | 0.121
14 | O=C1N(c2c(F)cc(C#Cc3ccccc3)cc2F)c2ncc(-c3ccncn3)n2C12CC2 [Example 18, 3′-[2,6-Difluoro-4-(2-phenylethynyl)phenyl]-6′-(pyrimidin-4-yl)-2′,3′-dihydrospiro[cyclopropane-1,1′-imidazo-[1,2-a][1,3]diazole]-2′-one] | 0.361
15 | Cn1ccc(-c2cnc3n2C2(CC2)C(=O)N3c2c(F)cc(-c3ccc(C(C)(F)F)cc3)cc2F)n1 [Example 25, 7′-[4-[4-(1,1-difluoroethyl)phenyl]-2,6-difluoro-phenyl]-3′-(1-methylpyrazol-3-yl)spiro[cyclopropane-1,5′-imidazo[1,2-a]imidazole]-6′-one] | 0.1
16 | Cn1cnc(-c2cnc3n2C2(CC2)C(=O)N3c2c(F)cc(C#Cc3cccnc3)cc2F)c1 [Example 20, 7′-[2,6-difluoro-4-[2-(3-pyridyl)ethynyl]phenyl]-3′-(1-methylimidazol-4-yl)spiro[cyclopropane-1,5′-imidazo[1,2-a]imidazole]-6′-one] | 0.442
17 | CC1(C)C(=O)N(c2c(F)cc(C#Cc3ccccc3)cc2F)c2ncc(I)n21 [Example 8, 1-(2,6-difluoro-4-(phenylethynyl)phenyl)-5-iodo-3,3-dimethyl-1H-imidazo[1,2-a]imidazol-2(3H)-one] | 0.418
18 | Cc1cnc2n1C1(CC1)C(=O)N2c1c(F)cc(C#Cc2ccccc2)cc1F [Example 47, 3-[2,6-Difluoro-4-(2-phenylethynyl)phenyl]-6-methyl-2,3-dihydrospiro[[1,3]diazolo[1,2-a]imidazole-1,1′-cyclopropane]-2-one] | 0.181
19 | O=C1N(c2c(F)cc(C#Cc3ccccc3)cc2F)c2ncc(-c3ccccc3)n2C12CC2 [Example 24, 3-[2,6-Difluoro-4-(2-phenylethynyl)phenyl]-6-phenyl-2,3-dihydrospiro[[1,3]diazolo[1,2-a]imidazole-1,1′-cyclopropane]-2-one] | 0.073
20 | Cc1cnc2n1C1(CC1)C(=O)N2c1c(F)cc(NC(=O)c2ccccn2)cc1F [Example 48, N-[3,5-difluoro-4-(3′-methyl-6′-oxo-spiro[cyclopropane-1,5′-imidazo[1,2-a]imidazole]-7′-yl)phenyl]pyridine-2-carboxamide] | 0.377
21 | CC(C)(C)c1cnn(-c2cc(F)c(N3C(=O)C4(CC4)n4c(C5(O)COC5)cnc43)c(F)c2)c1 [Example 52, 7′-[4-(4-tert-butylpyrazol-1-yl)-2,6-difluoro-phenyl]-3′-(3-hydroxyoxetan-3-yl)spiro[cyclopropane-1,5′-imidazo[1,2-a]imidazole]-6′-one] | 0.905
22 | O=C1N(c2c(F)cc(C#Cc3ccccc3)cc2F)c2ncc(CO)n2C12CC2 [Example 55, 7′-[2,6-difluoro-4-(2-phenylethynyl)phenyl]-3′-(hydroxymethyl)spiro[cyclopropane-1,5′-imidazo[1,2-a]imidazole]-6′-one] | 0.294
23 | O=C1CCN1c1cnc2n1C1(CC1)C(=O)N2c1c(F)cc(C#Cc2cccnc2)cc1F [Example 54, 7′-[2,6-difluoro-4-[2-(3-pyridyl)ethynyl]phenyl]-3′-(2-oxoazetidin-1-yl)spiro[cyclopropane-1,5′-imidazo[1,2-a]imidazole]-6′-one] | 0.808
